Reference: patent US7601489B2, “Manganese ion regulation of reverse transcriptase activity and methods of modulating same” (The Johns Hopkins University, priority 2002, dated 2009)
Numbering of substitutions follows the chain as printed.

Columns and labels:
wild-type Ty1 RT = biological target: T1, wild-type Ty1 RT (Saccharomyces cerevisiae, UniProt P47098); test: biochemical
T1 sequence (P47098 1218-1755 limits assumed): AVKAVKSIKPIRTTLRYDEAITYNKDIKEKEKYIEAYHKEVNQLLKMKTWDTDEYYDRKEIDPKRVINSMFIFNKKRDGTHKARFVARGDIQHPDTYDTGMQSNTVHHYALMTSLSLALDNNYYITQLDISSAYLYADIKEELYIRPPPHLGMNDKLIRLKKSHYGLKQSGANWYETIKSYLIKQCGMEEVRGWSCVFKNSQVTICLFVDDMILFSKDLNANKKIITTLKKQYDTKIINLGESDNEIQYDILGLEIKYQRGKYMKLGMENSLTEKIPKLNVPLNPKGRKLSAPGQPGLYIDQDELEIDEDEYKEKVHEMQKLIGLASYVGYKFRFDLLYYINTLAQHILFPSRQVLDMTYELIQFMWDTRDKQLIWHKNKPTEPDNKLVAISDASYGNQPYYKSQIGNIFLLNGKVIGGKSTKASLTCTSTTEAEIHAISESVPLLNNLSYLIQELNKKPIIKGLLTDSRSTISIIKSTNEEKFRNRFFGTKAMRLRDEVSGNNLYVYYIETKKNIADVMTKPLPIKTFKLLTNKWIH
Procedure: (§1) VLP isolation and analysis. Yeast cells harboring pGTy1-H3-mhis3AI were grown in 2% galactose at 22° C. for approximately 24 hr. Cell pellets from these 0.5 L cultures were resuspended in 5 ml buffer B (Eichinger and Boeke, Cell 54: 955-966, 1988, which is incorporated herein by reference) and VLPs were isolated. […] Reactions were set up on ice, carried out for 1 hr at 22° C. and kept on ice while being spotted onto DE81 anion-exchange paper (Whatman International Ltd.; Maidstone, England).
(§2) Protein purification and analysis. Recombinant Ty1 RT (Wilhelm et al., supra, 2000) containing a cleavable N-terminal GST-tag was expressed in E. coli and purified first by affinity chromatography and then by ion exchange chromatography, as described for HIV-1 RT (Le Grice et al., Meth. Enzymol. 262: 130-44, 1995, which is incorporated herein by reference). The GST-tagged protein was eluted from a Glutathione Sepharose 4B™ gel (Amersham) gravity column with buffer (50 mM HEPES-KOH, pH 7.8, 200 mM KCl, 10% glycerol and 2 mM DTT) containing 30 mM reduced glutathione. 50 mM HEPES-KOH, pH 7.0 with 10% glycerol was added to the protein solution to lower the pH to 7.1 and the KCl concentration to 25 mM. The recombinant Ty1 RT was further purified over a Resource S™ (Amersham) cation-exchange column using a linear KCl gradient (25-500 mM). […] Purified hetero-dimeric HIV-1 RT (Le Grice et al., supra, 1995) was acquired through the AIDS Research and Reference Reagent Program, Division of AIDS, NIAID, NIH. Purified AMV RT was purchased from Roche Molecular Biochemicals (Mannheim, Germany). The RT assays performed on the purified RTs were carried out as described above, except in the presence of 20 mM KCl, and HIV-1 RT assays were incubated at 37° C. Each reaction contained 45 ng of purified recombinant Ty1 RT or 30 ng of heterodimeric HIV-1 RT.

D211N Ty1 RT = biological target: T2, D211N Ty1 RT (Saccharomyces cerevisiae, UniProt P47098, D1428N); test: RT assay on purified RT, metal ion competition and metal activation kinetics
T2 sequence (P47098 1218-1755 D1428N): T1 sequence (P47098 1218-1755 limits assumed) with D211N
Description: Plasmid constructions. Plasmid c24-2I was generated by ligating the Stu I -Avr II fragment (4.3 kb) of c24-2 with the Sma I—Xba I fragment (6.0 kb) of pRS415 (LEU2 CEN6; Sikorski and Hieter, Genetics 122: 19-27, 1989, which is incorporated herein by reference). To simplify the cloning of the single amino-acid-substitution mutations into the PMR1 gene, c24-2L was constructed by removing the Xho I—Nde I fragment (1.2 kb) from c24-2I, filling in the ends with Klenow (New England Biolabs; Beverly Mass.), and ligating the blunt ends to recircularize the plasmid. Alanine substitution mutations, D778A and Q783A, were generated in the native PMR1 gene by replacing the Pst I—Sal I fragment (1.1 kb) of c24-2L with the corresponding fragment harboring the respective Pmr1p substitution mutation in the YEpHR1 backbone (Wei et al., J. Biol. Chem. 275: 23927-23932, 2000, which is incorporated herein by reference). The D53A substitution mutation was introduced into c24-2L by swapping in the Xba I fragment (0.3 kb) containing the Pmr1p substitution mutation in the YEpHR1 backbone (Wei et al., supra, 1999). Recombinant Ty1 RT (Wilhelm et al., supra, 2000) was PCR amplified and subcloned into the BamH I and Xho I sites of pGEX-4T-3 (Amersham Pharmacia Biotech; Piscataway N.J.). The D211N substitution mutation was generated by replacing the Sph I-Hind III fragment (0.4 kb) of the wild-type Ty1 RT expression construct with that of pJEF724 DD-DN (Uzun and Gabriel, supra, 2001).
as §1, §2

Ty1 RT [1] = biological target: T3, Ty1 RT (Saccharomyces cerevisiae, UniProt P47098); conditions: for Proposed activity of Ty1 RT, same metal at A site and B site: same ion at A site and B site
T3 sequence (P47098 1218-1755 limits assumed): T1 sequence (P47098 1218-1755 limits assumed)

hetero-dimeric HIV-1 RT = hetero-dimeric HIV-1 RT (Human immunodeficiency virus type 1 group M subtype B, UniProt P04585); conditions: purified hetero-dimeric HIV-1 RT; poly(rC) template; excess Mg^2+; 37° C.
Procedure: as §1, §2

M-MuLV RT = conditions: purified M-MuLV RT, with or without its associated RNase H
Procedure: as §1, §2

AMV RT = conditions: purified AMV RT; excess Mg^2+
Procedure: as §1, §2

Ty1 VLPs = Ty1 VLPs (Saccharomyces cerevisiae, UniProt P47098)
Procedure: as §1

Ty1 RT [2] = biological target: Ty1 RT (Saccharomyces cerevisiae, UniProt P47098, D1428N); conditions: Mn^2+ at A site, Mg^2+ at B site; unlikely for Wt.
[3] = D211N Ty1 RT, fit to Hill equation
[4] = Wt. Ty1 RT, fit to Hill equation

Chain of Ty1 RT (Saccharomyces cerevisiae, UniProt P47098, D1428N) (P47098 1103-1755 D1428N): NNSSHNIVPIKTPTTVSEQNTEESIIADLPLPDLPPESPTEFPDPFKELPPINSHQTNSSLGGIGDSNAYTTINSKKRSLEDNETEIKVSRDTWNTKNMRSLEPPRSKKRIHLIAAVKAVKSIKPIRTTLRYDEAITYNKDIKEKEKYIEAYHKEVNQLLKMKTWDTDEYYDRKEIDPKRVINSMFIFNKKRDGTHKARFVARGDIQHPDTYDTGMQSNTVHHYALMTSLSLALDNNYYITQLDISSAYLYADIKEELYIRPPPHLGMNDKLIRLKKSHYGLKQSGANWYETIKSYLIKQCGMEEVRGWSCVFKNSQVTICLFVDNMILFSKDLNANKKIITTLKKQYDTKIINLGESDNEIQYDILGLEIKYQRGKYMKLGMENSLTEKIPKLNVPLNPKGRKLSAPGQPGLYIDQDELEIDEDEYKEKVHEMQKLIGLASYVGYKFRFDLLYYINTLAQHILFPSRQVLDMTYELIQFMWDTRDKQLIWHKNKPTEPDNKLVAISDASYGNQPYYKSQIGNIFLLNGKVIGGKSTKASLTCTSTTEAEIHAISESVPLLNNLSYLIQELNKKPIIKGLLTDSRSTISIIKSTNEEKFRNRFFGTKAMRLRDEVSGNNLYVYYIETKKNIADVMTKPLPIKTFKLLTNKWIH

Structure (SMILES)	Kd (D211N Ty1 RT)	Proposed divalent cation binding affinity, A site (D211N Ty1 RT; D211N Ty1 RT)	Proposed divalent cation binding affinity, B site (D211N Ty1 RT; D211N Ty1 RT)	n (Hill coefficient) of metal activation (D211N Ty1 RT; [3])	Kd (wild-type Ty1 RT)	Proposed divalent cation binding affinity, A site (wild-type Ty1 RT; Wt. Ty1 RT)	Proposed divalent cation binding affinity, B site (wild-type Ty1 RT; Wt. Ty1 RT)	n (Hill coefficient) of metal activation (wild-type Ty1 RT; [4])	Proposed activity of Ty1 RT, same metal at A site and B site (Ty1 RT [1])	further results
[Ca+2].[Cl-].[Cl-] [Ca^2+, CaCl2, reference compound]										Inhibition of Ty1 RT in control competition experiment (wild-type Ty1 RT; Ca^2+ substituted for Mn^2+, in presence of Mg^2+ (FIG. 4C)): no significant inhibition
[Mg+2] [Mg^2+, MgCl2]	6.3 ± 0.2 mM	very low affinity for Mg^2+	low affinity for Mg^2+	2.1 ± 0.1	0.13 ± 0.04 mM	very high affinity for Mg^2+	low affinity for Mg^2+	1.7 ± 0.1	high	
[Mn+2] [Mn^2+, MnCl2]	0.02 ± 0.003 mM	very high affinity for Mn^2+	high affinity for Mn^2+	2.1 ± 0.1	19.9 ± 1.6 mM	very low affinity for Mn^2+	high affinity for Mn^2+	2.3 ± 0.2	low	Ratio (Mn^2+ concentration to Mg^2+ concentration) at which the increase in activity peaks (D211N Ty1 RT; D211N RT, Mn^2+ added in presence of Mg^2+): 0.02; kcat of metal activation (D211N Ty1 RT; [3]): 0.000158 ± 8.3e-06 s⁻¹; Inhibition by increasing concentrations of Mn2+ (D211N Ty1 RT; D211N Ty1 RT, printed: in the presence of excess Mn^2+ (FIG. 4D)): not inhibited; kcat of metal activation (wild-type Ty1 RT; [4]): 0.000156 ± 1.9e-05 s⁻¹; Mn^2+-dependent inhibition with DNA template (wild-type Ty1 RT; purified recombinant Ty1 RT, poly(dC) substituted for poly(rC)): Mn^2+-dependent inhibition was also observed; Ratio of Mn^2+ to Mg^2+ that reduced RT activity by 50% (wild-type Ty1 RT; purified recombinant Ty1 RT, poly(rC) template, excess Mg^2+): 1×10^−3; Ratio of Mn^2+ to Mg^2+ that reduced RT activity by 50% (hetero-dimeric HIV-1 RT): 7×10^−4; Effect of Mn^2+ on RT activity (M-MuLV RT): Increased activity at low Mn^2+ concentrations; Mn^2+-dependent inhibition of RT activity (AMV RT): Even more dramatic Mn^2+-dependent inhibition; Ratio of Mn^2+ to Mg^2+ that reduced RT activity by 50% (Ty1 VLPs; RNA-directed DNA polymerization, poly(rC) template, excess Mg^2+): 8×10^−3; Mn^2+-dependent inhibition with DNA template (Ty1 VLPs; poly(dC) substituted for poly(rC)): Mn^2+-dependent inhibition was also observed; Proposed activity of Ty1 RT, Mn^2+ at A site and Mg^2+ at B site (Ty1 RT [2]): high; Proposed activity of Ty1 RT, Mg^2+ at A site and Mn^2+ at B site (Ty1 RT [1]; Mn^2+ at B site, Mg^2+ at A site, unlikely for D211N): low
